Several values for one entry are separate records, joined by “and”; a condition that tells them apart may be missing. Equal values may be shown once. Entries after “also recorded” stand apart in the source; their conditions may differ.
How the values were obtained:
[1] = system: ER+/HER2− advanced or metastatic breast cancer; test: Antitumor activity: RECIST v1.1 response, CBR, PFS, duration of treatment; type: in vivo, human
Source text: Key efficacy end points included assessment of clinical response according to RECIST v1.1; the clinical benefit rate (CBR), defined as the proportion of patients who achieved a complete response (CR), achieved a partial response (PR), or had stable disease (SD) for at least 24 weeks; and progression-free survival (PFS), defined as the time from the date of the first dose to disease progression or death. Biomarker assessments included changes from baseline in circulating tumor DNA (e.g., ESR1 variants) and tumor tissue biomarkers (ERα and Ki67).
All DLT analyses (phase 1a) were performed in patients enrolled in the study during cycle 1 and who either received 75% of the planned palazestrant doses or experienced a DLT during cycle 1. All PK analyses were performed in patients who received at least 1 dose of palazestrant and had adequate postbaseline PK samples for characterization of PK parameters. All safety analyses were performed and PFS assessed in patients who received at least 1 dose of palazestrant. Clinical response (CR or PR) was assessed in patients who received at least 1 cycle of palazestrant, had measurable disease at baseline, and had at least 1 postbaseline tumor assessment. CBR was assessed in patients who received at least 1 cycle of palazestrant, had at least 1 postbaseline tumor assessment, and started their first dose at least 24 weeks before data cutoff. Patients who discontinued study treatment without radiographic progression within 24 weeks from the first dose were not included in the CBR analysis. PK parameters were estimated using conventional noncompartmental methods. For CBR, estimates were accompanied by 2-sided 95% confidence intervals (95% CIs). For PFS, Kaplan–Meier analyses were used to determine medians, event-free rates, and 95% CIs. For all other outcomes, categorical data were analyzed using frequencies and percentages, and continuous data were analyzed using means (standard deviation) or medians (range), as appropriate.

[2] = system: ESR1 wild-type and mutated human breast cancers; conditions: cited from earlier work
ER [3] = system: ER; parameters: method as in PMID 38102750; conditions: cited from earlier work
Ki67 = Ki67 immunohistochemistry of tumor samples; type: in vivo, human; conditions: cycle 3 day 1 (N = 12), all dose levels; baseline 29.2% (N = 18); P = 0.041
Description: All immunohistochemistry analyses from tumor samples were performed at ICON Central Laboratories (Farmingdale, NY, USA) using the Ventana® BenchMark ULTRA™ automated staining instrument (Oro Valley, AZ, USA). Positive- and negative-control tissue and negative reagent controls were run for each marker, as well as low-ER controls for each run. Estrogen receptor levels were estimated as the number of positive tumor nuclei divided by the total number of tumor nuclei, expressed as a percentage for each receptor type. Evaluation of Ki67 was performed in accordance with Ki67 Working Group recommendations: 1) only nuclear staining was assessed as positive; 2) in cases of tumor heterogeneity (hot spots), 2 counts were performed and the average was reported; and 3) lymphocyte-rich areas were avoided when possible. Presence of activating ESR1 mutations (amino acid regions 370–381, 460–473, and 529–538) and their mutant allele fractions (MAFs) were determined in cell-free DNA (cfDNA), collected at baseline and at 8 weeks on treatment using the SafeSEQ Breast Cancer Panel (Sysmex Inostics, Baltimore, MD, USA).
In patients who underwent biomarker testing, samples collected on cycle 3 day 1 of treatment across all dose levels were compared to baseline samples to assess changes during treatment. […]

ER [4] = system: ER; parameters: method as in ref 22 = [22]; 22. Hamilton E, Meisel J, Alemany C, Borges V, Lin NU, Wesolowski R, et al. Preliminary phase 1/2 results from OP-1250-001, a study of OP-1250, an oral CERAN/SERD, in patients with advanced and/or met; conditions: based on estradiol-supplemented preclinical models; cited from earlier work
[5] = 60 mg/day, measurable disease (n = 26)
[6] = 120 mg/day, 66 patients with measurable disease
[7] = 120 mg/day, all patients (n = 86)
[8] = 120 mg/day, patients with ESR1 mutation at baseline (n = 36)

SMILES: CCCN1CC(Oc2ccc([C@@H]3c4[nH]c5ccccc5c4C[C@@H](C)N3CC(C)(C)F)cc2)C1 [palazestrant, Palazestrant]
- best response observed in dose cohorts ([1]; 60 mg/day and 120 mg/day dose cohorts): Confirmed partial responses; also recorded: confirmed PR
- clinical benefit rate (CBR) ([1]; 60 mg/day, 13 patients with cancers with ESR1 mutations): 23.1%
- clinical benefit rate (CBR) ([1]; 60 mg/day, all evaluable patients (n = 26)): 19% and 19.2%
- confirmed PRs [1, 5]: 7.7%
- total PRs [1, 5]: 11.5%
- unconfirmed PR [1, 5]: 3.8%
- patients remaining on treatment for ≥ 1 year ([1]; 120 mg/day (n = 86)): 7.0%
- patients with a > 30% reduction in tumor size ([1]; 120 mg/day, 8/64): 12.5%
- patients with a reduction in tumor size (percentage change less than zero) ([1]; 120 mg/day, 25/64): 39.1%
- patients remaining on treatment for ≥ 6 months ([1]; 120 mg/day, 32/86): 37.2%
- confirmed PRs [1, 6]: 4.5%
- confirmed PRs including one cPR after the data cutoff date [1, 6]: 6.0%
- total PRs [1, 6]: 7.6%
- unconfirmed PRs [1, 6]: 3.0%
- clinical benefit rate (CBR) ([1]; 120 mg/day, all evaluable patients (n = 70)): 46% and 45.7%
- 6-month PFS rate [1, 7]: 39%
- median progression-free survival (95% CI) [1, 7]: 4.8 months
- CBR in patients who had a reduction in ESR1 mutations ([1]; 120 mg/day, ctDNA available, 8/11): 73%
- CBR in patients who did not have a reduction in ESR1 mutations ([1]; 120 mg/day, ctDNA available, 8/32): 25%
- 6-month PFS rate [1, 8]: 47%
- median progression-free survival (95% CI) [1, 8]: 5.6 months
- clinical benefit rate (CBR) ([1]; 120 mg/day, patients with cancers with ESR1 mutations (n = 29)): 58.6%
- tumor shrinkage compared with fulvestrant and tamoxifen ([2]; preclinical xenograft models, ESR1 wild-type and mutated): greater tumor shrinkage
- preclinical antitumor activity relative to fulvestrant and elacestrant ([2]; regardless of ESR1 mutation status): superior
- potency in vitro relative to imlunestrant (ER [3]): greater potency in vitro
- Ki67 levels on treatment (Ki67): 20.4%
- predicted efficacy threshold, target (efficacious) exposure, Cmin (ER [4]): 226 ng/mL
